What all share (experiment): Kinase Inhibition Assay
The target of test [1] is Mitogen-activated protein kinase 1/3 (Homo sapiens, UniProt P27361+P28482). Here is the method:
(§1) The kinase activity is the enzyme activity that catalyzes the transfer of the terminal phosphate from [gamma-32P] ATP to the poly (E: Y) substrate. Nonspecific activity was defined as radioactivity retained on the filters following incubation of samples without enzyme. Specific activity was determined as total activity minus nonspecific activity.

Test [2] concerns the target Platelet-derived growth factor receptor alpha/beta (Homo sapiens, UniProt P09619+P16234). Here is the method:
as §1

Test [3] addresses Platelet-derived growth factor receptor beta (Homo sapiens, UniProt P09619). Here is the method:
as §1

Test [4] deals with Cyclin-dependent kinase 4 (Homo sapiens, UniProt P11802). The method, then: as §1
The target of test [5] is Proto-oncogene tyrosine-protein kinase Src (Homo sapiens, UniProt P12931). Here is the method:
as §1

Test [6] concerns the target Fibroblast growth factor receptor 1 (Homo sapiens, UniProt P11362). Here is the method:
as §1

Another test addresses Protein kinase C (PKC). The method, then: as §1

Sequence of Fibroblast growth factor receptor 1 (P11362 whole entry): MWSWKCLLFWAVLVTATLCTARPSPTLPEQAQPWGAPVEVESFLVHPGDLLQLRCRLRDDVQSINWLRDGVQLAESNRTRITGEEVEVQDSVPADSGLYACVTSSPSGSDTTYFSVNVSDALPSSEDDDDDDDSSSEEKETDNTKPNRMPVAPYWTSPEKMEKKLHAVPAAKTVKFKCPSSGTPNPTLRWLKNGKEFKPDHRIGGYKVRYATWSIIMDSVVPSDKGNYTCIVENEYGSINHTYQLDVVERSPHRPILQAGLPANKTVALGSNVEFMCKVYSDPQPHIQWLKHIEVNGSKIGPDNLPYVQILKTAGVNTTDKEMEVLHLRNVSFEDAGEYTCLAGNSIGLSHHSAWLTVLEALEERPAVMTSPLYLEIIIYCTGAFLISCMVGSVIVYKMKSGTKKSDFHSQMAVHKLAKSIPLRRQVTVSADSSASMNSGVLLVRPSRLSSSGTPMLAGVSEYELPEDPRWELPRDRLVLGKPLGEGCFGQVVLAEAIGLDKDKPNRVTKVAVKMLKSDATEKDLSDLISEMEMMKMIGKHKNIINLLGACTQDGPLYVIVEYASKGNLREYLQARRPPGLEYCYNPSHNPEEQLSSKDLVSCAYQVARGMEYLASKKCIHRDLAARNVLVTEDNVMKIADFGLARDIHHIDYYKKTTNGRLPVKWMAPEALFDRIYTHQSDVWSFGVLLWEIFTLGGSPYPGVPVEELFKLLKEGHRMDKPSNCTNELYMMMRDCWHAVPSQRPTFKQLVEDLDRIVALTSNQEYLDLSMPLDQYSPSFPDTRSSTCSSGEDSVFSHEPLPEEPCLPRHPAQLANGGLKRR
Sequence of Proto-oncogene tyrosine-protein kinase Src (P12931 2-536 limits assumed): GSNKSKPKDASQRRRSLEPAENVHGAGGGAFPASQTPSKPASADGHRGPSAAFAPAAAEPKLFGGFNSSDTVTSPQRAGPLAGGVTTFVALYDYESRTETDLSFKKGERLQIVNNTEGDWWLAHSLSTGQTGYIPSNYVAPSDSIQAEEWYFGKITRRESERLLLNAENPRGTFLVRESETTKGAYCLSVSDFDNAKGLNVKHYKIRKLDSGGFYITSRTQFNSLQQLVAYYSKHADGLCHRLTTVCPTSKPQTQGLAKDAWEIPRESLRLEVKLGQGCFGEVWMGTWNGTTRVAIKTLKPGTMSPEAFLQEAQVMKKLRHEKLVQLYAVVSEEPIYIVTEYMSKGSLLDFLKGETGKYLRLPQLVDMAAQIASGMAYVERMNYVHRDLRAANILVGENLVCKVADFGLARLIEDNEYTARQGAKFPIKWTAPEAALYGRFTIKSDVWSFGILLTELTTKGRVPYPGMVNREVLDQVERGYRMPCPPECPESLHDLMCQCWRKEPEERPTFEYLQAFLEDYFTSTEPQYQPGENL
Sequence of Cyclin-dependent kinase 4 (P11802 whole entry): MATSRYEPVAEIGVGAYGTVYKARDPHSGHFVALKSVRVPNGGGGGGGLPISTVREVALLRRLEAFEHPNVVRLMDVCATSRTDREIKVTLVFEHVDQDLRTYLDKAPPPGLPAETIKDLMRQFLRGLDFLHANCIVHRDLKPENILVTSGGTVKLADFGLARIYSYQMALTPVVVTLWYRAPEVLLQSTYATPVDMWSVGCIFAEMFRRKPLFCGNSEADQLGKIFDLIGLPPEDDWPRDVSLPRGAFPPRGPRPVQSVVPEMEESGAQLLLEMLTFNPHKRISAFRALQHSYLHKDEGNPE
Sequence of Platelet-derived growth factor receptor beta (P09619 whole entry): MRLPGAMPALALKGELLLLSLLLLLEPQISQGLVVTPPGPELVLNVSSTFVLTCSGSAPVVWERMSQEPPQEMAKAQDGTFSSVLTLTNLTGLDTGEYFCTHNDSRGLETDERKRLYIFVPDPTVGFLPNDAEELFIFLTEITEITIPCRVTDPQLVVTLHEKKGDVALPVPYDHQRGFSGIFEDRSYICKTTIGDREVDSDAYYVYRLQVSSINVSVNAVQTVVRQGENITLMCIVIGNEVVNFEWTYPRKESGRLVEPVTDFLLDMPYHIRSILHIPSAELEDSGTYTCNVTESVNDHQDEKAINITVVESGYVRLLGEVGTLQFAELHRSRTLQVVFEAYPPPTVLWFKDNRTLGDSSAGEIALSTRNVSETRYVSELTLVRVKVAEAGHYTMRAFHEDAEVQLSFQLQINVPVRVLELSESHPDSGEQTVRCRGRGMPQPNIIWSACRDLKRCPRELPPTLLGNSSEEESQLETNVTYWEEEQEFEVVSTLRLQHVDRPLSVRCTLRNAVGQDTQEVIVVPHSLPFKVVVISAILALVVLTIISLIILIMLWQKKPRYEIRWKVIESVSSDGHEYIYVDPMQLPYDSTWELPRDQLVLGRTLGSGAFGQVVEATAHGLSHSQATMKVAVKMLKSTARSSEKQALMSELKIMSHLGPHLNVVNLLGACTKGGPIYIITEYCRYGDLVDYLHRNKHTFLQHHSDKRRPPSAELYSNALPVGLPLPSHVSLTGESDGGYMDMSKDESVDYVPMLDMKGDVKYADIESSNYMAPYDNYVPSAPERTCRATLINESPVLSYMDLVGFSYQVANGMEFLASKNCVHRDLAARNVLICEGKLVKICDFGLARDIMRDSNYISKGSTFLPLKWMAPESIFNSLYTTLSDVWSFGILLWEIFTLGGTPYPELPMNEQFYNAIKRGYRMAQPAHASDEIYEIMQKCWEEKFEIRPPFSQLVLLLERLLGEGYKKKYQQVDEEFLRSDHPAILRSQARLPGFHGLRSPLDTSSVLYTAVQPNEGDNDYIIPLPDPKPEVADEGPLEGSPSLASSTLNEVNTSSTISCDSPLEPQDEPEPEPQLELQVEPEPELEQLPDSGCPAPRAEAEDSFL
Sequence of Mitogen-activated protein kinase 1/3 (P28482 whole entry): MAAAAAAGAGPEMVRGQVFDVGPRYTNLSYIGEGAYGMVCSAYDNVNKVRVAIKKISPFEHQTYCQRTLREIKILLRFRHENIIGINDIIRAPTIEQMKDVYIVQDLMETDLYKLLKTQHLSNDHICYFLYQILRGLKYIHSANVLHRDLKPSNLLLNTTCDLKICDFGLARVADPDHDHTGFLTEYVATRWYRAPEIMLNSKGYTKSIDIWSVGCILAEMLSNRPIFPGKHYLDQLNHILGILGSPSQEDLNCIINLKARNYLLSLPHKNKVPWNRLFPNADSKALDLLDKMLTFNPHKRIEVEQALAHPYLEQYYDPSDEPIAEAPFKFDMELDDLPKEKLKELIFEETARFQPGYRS
Sequence of Mitogen-activated protein kinase 1/3 (P27361 whole entry): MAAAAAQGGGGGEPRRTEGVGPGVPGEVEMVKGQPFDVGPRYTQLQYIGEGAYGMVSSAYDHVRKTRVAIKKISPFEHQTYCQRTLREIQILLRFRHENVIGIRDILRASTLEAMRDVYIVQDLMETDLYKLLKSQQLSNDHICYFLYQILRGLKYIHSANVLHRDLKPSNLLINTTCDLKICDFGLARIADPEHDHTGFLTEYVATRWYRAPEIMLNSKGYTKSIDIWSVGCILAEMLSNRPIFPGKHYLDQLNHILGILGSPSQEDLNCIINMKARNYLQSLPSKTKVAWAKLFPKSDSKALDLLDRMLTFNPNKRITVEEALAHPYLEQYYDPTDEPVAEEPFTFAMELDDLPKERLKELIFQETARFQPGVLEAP

Regarding `CC(C)(C)NC(=O)Nc1nc2nc(N)ncc2cc1-c1c(Cl)cccc1Cl`, the IC50 in test [1] was 7.1 µM; in test [2], 1.25 µM; in test [3] (pH 7.4, 25 °C), 1.25 µM; in test [4], greater than 50 µM.
Turning to `CN(C)c1cc(-c2cc3cnc(N)nc3nc2NC(=O)NC(C)(C)C)cc(N(C)C)c1`, the IC50 in test [5] was greater than 50 µM; in test [2] it was greater than 50 µM; in test [3], greater than 50 µM; in test [6] it was 16 µM.
As for `CCN(CC)CCOc1ccc(C)c(-c2cc3cnc(N)nc3nc2NC(=O)NC(C)(C)C)c1C` [1-(2-amino-6-{3-[2-(diethylamino)ethoxy]-2,6-dimethylphenyl}pyrido[2,3-d]pyrimidin-7-yl)-3-tert-butylurea], the 50% inhibitory concentration (IC50) was 1.65 µM in test [5]; 11.8 µM in test [2]; 11.8 µM in test [3] (pH 7.4, 25 °C); 0.89 µM in test [6].
For `CC(C)(C)NC(=O)Nc1nc2nc(N)ncc2cc1-c1c(Br)cccc1Br` [1-[2-Amino-6-(2,6-dibromo-phenyl)-pyrido-[2,3-d]pyrimidin-7-yl]-3-tert-butyl-urea], the IC50 in test [5] was 0.21 µM; in test [2], 1.42 µM; in test [3] (pH 7.4, 25 °C), 1.42 µM; in test [6] it was 0.29 µM.
For the compound `Cc1c(C)c(C)c(-c2cc3cnc(N)nc3nc2NC(=O)NC(C)(C)C)c(C)c1C` [1-[2-amino-6-(2,3,4,5,6-pentamethylphenyl)pyrido[2,3-d]pyrimidin-7-yl]-3-tert-butylurea], the IC50 was greater than 50 µM in test [5]; greater than 50 µM in test [2]; greater than 50 µM in test [3] (pH 7.4, 25 °C); 1.62 µM in test [6].
`Cc1cc(C)c(C)c(-c2cc3cnc(N)nc3nc2NC(=O)NC(C)(C)C)c1C` [1-[2-amino-6-(2,3,5,6-tetramethylphenyl)pyrido[2,3-d]pyrimidin-7-yl]-3-tert-butylurea]: the IC50 in test [1] was greater than 50 µM; in test [2], greater than 50 µM; on Protein kinase C (PKC), greater than 50 µM; in test [3] (pH 7.4, 25 °C), greater than 50 µM; in test [4], greater than 40 µM.
For `CC(C)(C)NC(=O)Nc1nc2nc(N)ncc2cc1-c1c(Cl)ccc(Cl)c1Cl` [1-[2-amino-6-(2,3,6-trichlorophenyl)pyrido[2,3-d]pyrimidin-7-yl]-3-tert-butylurea], the 50% inhibitory concentration (IC50) in test [2] was determined as 2.96 µM; in test [3] (pH 7.4, 25 °C), 2.96 µM; in test [6], 0.11 µM.
As for `CC(C)(C)NC(=O)Nc1nc2nc(N)ncc2cc1-c1cccc(Cl)c1Cl` [1-[2-amino-6-(2,3-dichlorophenyl)pyrido[2,3-d]pyrimidin-7-yl]-3-tert-butylurea], the IC50 in test [5] was 4.41 µM; in test [2] it was 2.26 µM; in test [3] (pH 7.4, 25 °C), 2.26 µM; in test [6], 0.16 µM.
For `Cc1cccc(-c2cc3cnc(N)nc3nc2NC(=O)NC(C)(C)C)c1C` [1-[2-amino-6-(2,3-dimethylphenyl)pyrido[2,3-d]pyrimidin-7-yl]-3-tert-butylurea], the IC50 in test [2] stood at 6.05 µM; in test [3] (pH 7.4, 25 °C), 6.05 µM.
`Cc1cc(C)c(-c2cc3cnc(N)nc3nc2NC(=O)NC(C)(C)C)c(C)c1` [1-[2-amino-6-(2,4,6-trimethylphenyl)pyrido[2,3-d]pyrimidin-7-yl]-3-tert-butylurea]: the IC50 stood at 0.36 µM in test [5]; 1.47 µM in test [2]; 1.47 µM in test [3] (pH 7.4, 25 °C); 0.27 µM in test [6].
Take `CC(C)(C)NC(=O)Nc1nc2nc(N)ncc2cc1-c1c(F)cccc1F` [1-[2-amino-6-(2,6-difluorophenyl)pyrido[2,3-d]pyrimidin-7-yl]-3-tert-butylurea]: the IC50 in test [5] worked out at 0.8 µM; in test [2] it was 1.67 µM; in test [3] (pH 7.4, 25 °C), 1.67 µM; in test [6], 0.11 µM.
Turning to `CC(C)(C)NC(=O)Nc1nc2nc(N)ncc2cc1-c1c(Cl)cccc1Br` [1-[2-amino-6-(2-bromo-6-chlorophenyl)pyrido[2,3-d]pyrimidin-7-yl]-3-tert-butylurea], the IC50 in test [5] came out at 0.21 µM; in test [2] it was 0.62 µM; in test [3] (pH 7.4, 25 °C), 0.62 µM.
For the compound `CCc1ccccc1-c1cc2cnc(N)nc2nc1NC(=O)NC(C)(C)C` [1-[2-amino-6-(2-ethylphenyl)pyrido[2,3-d]pyrimidin-7-yl]-3-tert-butylurea], the IC50 was 10.4 µM in test [5]; 4.48 µM in test [2]; 4.48 µM in test [3] (pH 7.4, 25 °C); 11.2 µM in test [6].
For the compound `COc1ccccc1-c1cc2cnc(N)nc2nc1NC(=O)NC(C)(C)C` [1-[2-amino-6-(2-methoxyphenyl)pyrido[2,3-d]pyrimidin-7-yl]-3-tert-butylurea], the IC50 in test [5] was found to be 10.4 µM; in test [2], 4.48 µM; in test [3] (pH 7.4, 25 °C), 4.48 µM.
For the compound `Cc1ccccc1-c1cc2cnc(N)nc2nc1NC(=O)NC(C)(C)C` [1-[2-amino-6-(2-methylphenyl)pyrido[2,3-d]pyrimidin-7-yl]-3-tert-butylurea], the IC50 in test [2] was 1.05 µM; in test [3] (pH 7.4, 25 °C), 1.05 µM.
As to `COc1ccc(-c2cc3cnc(N)nc3nc2NC(=O)NC(C)(C)C)cc1OC` [1-[2-amino-6-(3,4-dimethoxyphenyl)pyrido[2,3-d]pyrimidin-7-yl]-3-tert-butylurea], the IC50 in test [5] was greater than 50 µM; in test [2] it was greater than 50 µM; in test [3] it was greater than 50 µM; in test [6], 20.2 µM.
Turning to `CCOc1cc(OCC)cc(-c2cc3cnc(N)nc3nc2NC(=O)NC(C)(C)C)c1` [1-[2-amino-6-(3,5-diethoxyphenyl)pyrido[2,3-d]pyrimidin-7-yl]-3-tert-butylurea], the IC50 is greater than 50 µM in test [5], greater than 50 µM in test [2], greater than 50 µM in test [3] and 1.65 µM in test [6].
With `CCc1cc(CC)cc(-c2cc3cnc(N)nc3nc2NC(=O)NC(C)(C)C)c1` [1-[2-amino-6-(3,5-diethylphenyl)pyrido[2,3-d]pyrimidin-7-yl]-3-tert-butylurea], the IC50 is greater than 50 µM in test [5]; greater than 50 µM in test [2]; greater than 50 µM in test [3] (pH 7.4, 25 °C); 7.76 µM in test [6].
In the case of `CC(C)(C)NC(=O)Nc1nc2nc(N)ncc2cc1-c1cc(F)cc(F)c1` [1-[2-amino-6-(3,5-difluorophenyl)pyrido[2,3-d]pyrimidin-7-yl]-3-tert-butylurea], the IC50 came to 1.35 µM in test [5]; 8.97 µM in test [2]; 8.97 µM in test [3] (pH 7.4, 25 °C); 1.1 µM in test [6].
With `Cc1cc(C)cc(-c2cc3cnc(N)nc3nc2NC(=O)NC(C)(C)C)c1` [1-[2-amino-6-(3,5-dimethylphenyl)pyrido[2,3-d]pyrimidin-7-yl]-3-tert-butylurea], the IC50 was greater than 50 µM in test [5]; 52.9 µM in test [2]; 52.9 µM in test [3] (pH 7.4, 25 °C); 1.13 µM in test [6].
In the case of `CCOc1cccc(-c2cc3cnc(N)nc3nc2NC(=O)NC(C)(C)C)c1` [1-[2-amino-6-(3-ethoxyphenyl)pyrido[2,3-d]pyrimidin-7-yl]-3-tert-butylurea], the IC50 in test [5] is greater than 50 µM; in test [2] it was 23 µM; in test [3], 23 µM; in test [6], 0.67 µM.
For `COc1cccc(-c2cc3cnc(N)nc3nc2NC(=O)NC(C)(C)C)c1` [1-[2-amino-6-(3-methoxyphenyl)pyrido[2,3-d]pyrimidin-7-yl]-3-tert-butylurea], the IC50 in test [2] came out at 22.9 µM; in test [3], 22.9 µM; in test [6], 0.36 µM.
With `COc1ccc(-c2cc3cnc(N)nc3nc2NC(=O)NC(C)(C)C)cc1` [1-[2-amino-6-(4-methoxyphenyl)pyrido[2,3-d]pyrimidin-7-yl]-3-tert-butylurea], the IC50 was greater than 50 µM in test [5], 2.89 µM in test [2], 2.89 µM in test [3] and 3.97 µM in test [6].
`Cc1ccc(-c2cc3cnc(N)nc3nc2NC(=O)NC(C)(C)C)cc1` [1-[2-amino-6-(4-methylphenyl)pyrido[2,3-d]pyrimidin-7-yl]-3-tert-butylurea]: the IC50 worked out at 17.5 µM in test [5]; 6.31 µM in test [2]; 6.31 µM in test [3] (pH 7.4, 25 °C); 1.67 µM in test [6].
With `CC(C)(C)NC(=O)Nc1nc2nc(N)ncc2cc1-c1cc(C(F)(F)F)cc(C(F)(F)F)c1` [1-{2-amino-6-[3,5-bis(trifluoromethyl)phenyl]pyrido[2,3-d]pyrimidin-7-yl}-3-tert-butylurea], the IC50 in test [5] is greater than 50 µM; in test [2] it was greater than 50 µM; in test [3] (pH 7.4, 25 °C) it was greater than 50 µM; in test [6], greater than 50 µM.
For `CC(C)(C)NC(=O)Nc1nc2nc(N)ncc2cc1-c1ccccc1` [1-{2-amino-6-phenylpyrido[2,3-d]pyrimidin-7-yl}-3-tert-butylurea], the IC50 in test [5] amounted to 19.3 µM; in test [2], 13.2 µM; in test [3] (pH 7.4, 25 °C), 13.2 µM; in test [6], 8 µM.
Turning to `COc1cc(OC)cc(-c2cc3cnc(N)nc3nc2NC(=O)NC(C)(C)C)c1` [6-arylpyrido[2,3-d]pyrimidine deriv. 25], the values for the IC50 in test [6] and in test [4] were 0.06 µM and greater than 40 µM, respectively.

By IC50 is commonly meant the concentration that inhibits the measured activity by half.

These data come from BindingDB's records for doi:10.1074/jbc.M606873200 (Parke-Davis Pharmaceutical Research, 1997).
